In patent publication US8927246B2, “Method to increase the production of extracellular polymeric substances (EPS) in a Acidithiobacillus ferrooxidans culture by the inhibition of enzymes of tricarboxilic acid cycle” (Universidad de Chile, priority 2010, dated 2015):

What was measured:
Aconitase (EC 4.2.1.3) = settings: cited from earlier work
[1] = test system: Acidithiobacillus ferrooxidans strain Wenelen; assay: Batch culture of A. ferrooxidans Wenelen with FIC versus control: biomass and EPS production; type: cell-based; settings: for [EPS] ajusted: fitted curve
Protocol: To compare biomass and EPS production in a Acidithiobacillus ferrooxidans, a culture with FIC and a control one, without FIC, were conducted.
Both cultures were carried in 1 L of a 9K medium described in Table 2, with the addition of 30 g/L of ferrous sulfate, with pH set at 1.8, agitation of 250 rpm and air flux of 1 VVM.
In both cultures, the same initial biomass concentration of 1*10^7 cell/mL was inoculated. In sample 1, 80 μM of FIC was added. Cultures were kept for 288 hours and EPS and biomass concentration was periodically measured. Afterwards, specific productivity of EPS was calculated.

[2] = 80 μM FIC, from hours 48 to 120

## fluoroisocitrate [FIC]
Aconitase (EC 4.2.1.3)
  inhibition of aconitase: specifically inhibited
[1]; 80 μM FIC, 192 hours
  amount of EPS per cell (pg EPS/cell) relative to control: 18 times
[1]; 80 μM FIC, at 120 hours of culture
  EPS yield (pg EPS/cell) relative to control sample: 2 times
[1]; 80 μM FIC, between 120 and 288 hours
  biomass relative to control sample: lower by one magnitude order
[1]; 80 μM FIC, first 48 hours
  difference in growth rate or EPS production versus control sample: no significant differences
[1]; [2]
  EPS production: strong increase
  biomass: remains practically constant
[1]; 80 μM FIC, time 0.0001 hours
  EPS: 28 mg/L
  cel/ml (biomass concentration): 4.69E+06 cel/ml
  pg EPS/cel: 5.97 pg EPS/cel
  [EPS] ajusted: 28.00 mg/L
[1]; 80 μM FIC, time 24 hours
  EPS: 33.5 mg/L
  cel/ml (biomass concentration): 7.81E+06 cel/ml
  pg EPS/cel: 4.29 pg EPS/cel
  [EPS] ajusted: 36.49 mg/L
[1]; 80 μM FIC, time 48 hours
  EPS: 74 mg/L
  cel/ml (biomass concentration): 6.66E+07 cel/ml
  pg EPS/cel: 1.11 pg EPS/cel
  [EPS] ajusted: 109.28 mg/L
[1]; 80 μM FIC, time 120 hours
  EPS: 341 mg/L
  cel/ml (biomass concentration): 7.69E+07 cel/ml
  pg EPS/cel: 4.44 pg EPS/cel
  [EPS] ajusted: 306.36 mg/L
[1]; 80 μM FIC, time 144 hours
  EPS: 350 mg/L
  cel/ml (biomass concentration): 4.16E+07 cel/ml
  pg EPS/cel: 8.42 pg EPS/cel
  [EPS] ajusted: 318.74 mg/L
[1]; 80 μM FIC, time 168 hours
  EPS: 372.5 mg/L
  cel/ml (biomass concentration): 3.41E+07 cel/ml
  pg EPS/cel: 10.94 pg EPS/cel
  [EPS] ajusted: 324.73 mg/L
[1]; 80 μM FIC, time 192 hours
  EPS: 348.5 mg/L
  cel/ml (biomass concentration): 1.41E+07 cel/ml
  pg EPS/cel: 24.78 pg EPS/cel
  [EPS] ajusted: 327.88 mg/L
[1]; 80 μM FIC, time 216 hours
  EPS: 315 mg/L
  cel/ml (biomass concentration): 1.38E+07 cel/ml
  pg EPS/cel: 22.91 pg EPS/cel
  [EPS] ajusted: 329.65 mg/L
[1]; 80 μM FIC, time 288 hours
  EPS: 305 mg/L
  cel/ml (biomass concentration): 1.94E+07 cel/ml
  pg EPS/cel: 15.74 pg EPS/cel
  [EPS] ajusted: 331.83 mg/L
[1]; A. ferroxidans culture
  effect on EPS and biomass production in culture: enhanced EPS production in detriment of biomass production
[1]; FIC cultures, after the first 30 hours
  EPS specific productivity versus control: significant increase
[1]; FIC cultures, around the 50 hours of culture, exponential growth phase
  increase in EPS specific productivity versus control: ~30%
